Laboratory results reported in the NIST ThermoML archive (doi:10.1016/j.jct.2006.01.013).
Numbers after ± are expanded uncertainties.

Conditions: 101.33 kPa, Liquid

CCCCCC[n+]1ccn(C)c1.O=S(=O)([N-]S(=O)(=O)C(F)(F)F)C(F)(F)F
Conditions | mass density [kg/m3]
290.95 K | 1378.1 ± 0.8
292.95 K | 1376.3 ± 0.8
294.95 K | 1374.4 ± 0.8
296.95 K | 1372.6 ± 0.8
299 K | 1370.8 ± 0.8
301 K | 1369 ± 0.8
303 K | 1367.2 ± 0.8
305.05 K | 1365.3 ± 0.8
307.05 K | 1363.5 ± 0.8
